From US10081624B2, “Heterocyclic compound” (Takeda Pharmaceutical Company Limited, priority 2014, dated 2018)

Key:
[1] = target: T1, HDAC1 enzyme (Homo sapiens, UniProt Q13547); experiment: HDAC1 enzyme inhibitory assay (HDAC-Glo I/II Assay kit); assay type: biochemical; conditions: 1 μM test compound; for inhibition at 1 µM: read-out: HDAC1 inhibitory rate (%) (1 μM)
T1 construct: prepared by transducing full length HDAC1 and HDAC6 genes into Sf-9 insect cells; GST; purchased SignalChem; host or cells: Sf-9 insect cells
T1 sequence (Q13547 whole entry): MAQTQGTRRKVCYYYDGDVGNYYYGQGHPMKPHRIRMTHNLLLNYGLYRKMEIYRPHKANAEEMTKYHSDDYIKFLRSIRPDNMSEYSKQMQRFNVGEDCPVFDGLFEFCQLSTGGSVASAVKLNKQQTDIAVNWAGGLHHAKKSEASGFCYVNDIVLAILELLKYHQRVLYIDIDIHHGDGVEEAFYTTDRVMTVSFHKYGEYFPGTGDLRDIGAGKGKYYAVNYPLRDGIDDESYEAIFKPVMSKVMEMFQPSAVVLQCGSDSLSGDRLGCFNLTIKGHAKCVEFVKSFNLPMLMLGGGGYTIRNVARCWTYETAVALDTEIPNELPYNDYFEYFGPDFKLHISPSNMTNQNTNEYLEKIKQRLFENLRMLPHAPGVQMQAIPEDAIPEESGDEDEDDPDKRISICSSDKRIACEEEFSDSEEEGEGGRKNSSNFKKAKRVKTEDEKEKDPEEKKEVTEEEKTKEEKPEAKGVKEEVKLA
Experimental: HDAC1 enzyme and HDAC6 enzyme each prepared by transducing full length HDAC1 and HDAC6 genes into Sf-9 insect cells and purifying by GST affinity column were purchased from SignalChem. Using these enzymes, HDAC1 and/or HDAC6 enzyme inhibitory activities of the compound of the present invention were evaluated. Enzymes were used after preserved at −70° C. HDAC1 or HDAC6 enzyme inhibitory activity of the compound of the present invention was measured using HDAC-Glo™ I/II Assay kit (Promega) according to the following experimental method. The test compound diluted with assay buffer (24 mM Tris-HCl (pH 7.5), 1 mM MgCl2, 0.35 mM KCl, 135 mM NaCl, 0.6 mM Glutathione, 0.01% Tween-20) was added to a 384-well plate by each 2 μL. Then, HDAC1 or HDAC6 enzyme solution diluted with assay buffer was added thereto by each 4 μL, and the plate was incubated at room temperature for 60 min. After incubated, HDAC substrate-Developer solution prepared according to Promega protocol attached to the assay kit was added to the 384-well plate by each 2 μL, and the enzyme reaction was started. After reacting at room temperature for 20 min, luminescence level was measured using plate reader Envision (PerkinElmer). The inhibitory activity of each compound was calculated as a relative activity value when luminescence level in wells without enzyme is considered as 100% inhibition.

[2] = target: T2, HDAC6 enzyme (Homo sapiens, UniProt Q9UBN7); experiment: HDAC6 enzyme inhibitory assay (HDAC-Glo I/II Assay kit); assay type: biochemical; conditions: 1 μM test compound; for inhibition at 1 µM: read-out: HDAC6 inhibitory rate (%) (1 μM)
T2 construct: prepared by transducing full length HDAC1 and HDAC6 genes into Sf-9 insect cells; GST; purchased SignalChem; host or cells: Sf-9 insect cells
T2 sequence (Q9UBN7 1-1215): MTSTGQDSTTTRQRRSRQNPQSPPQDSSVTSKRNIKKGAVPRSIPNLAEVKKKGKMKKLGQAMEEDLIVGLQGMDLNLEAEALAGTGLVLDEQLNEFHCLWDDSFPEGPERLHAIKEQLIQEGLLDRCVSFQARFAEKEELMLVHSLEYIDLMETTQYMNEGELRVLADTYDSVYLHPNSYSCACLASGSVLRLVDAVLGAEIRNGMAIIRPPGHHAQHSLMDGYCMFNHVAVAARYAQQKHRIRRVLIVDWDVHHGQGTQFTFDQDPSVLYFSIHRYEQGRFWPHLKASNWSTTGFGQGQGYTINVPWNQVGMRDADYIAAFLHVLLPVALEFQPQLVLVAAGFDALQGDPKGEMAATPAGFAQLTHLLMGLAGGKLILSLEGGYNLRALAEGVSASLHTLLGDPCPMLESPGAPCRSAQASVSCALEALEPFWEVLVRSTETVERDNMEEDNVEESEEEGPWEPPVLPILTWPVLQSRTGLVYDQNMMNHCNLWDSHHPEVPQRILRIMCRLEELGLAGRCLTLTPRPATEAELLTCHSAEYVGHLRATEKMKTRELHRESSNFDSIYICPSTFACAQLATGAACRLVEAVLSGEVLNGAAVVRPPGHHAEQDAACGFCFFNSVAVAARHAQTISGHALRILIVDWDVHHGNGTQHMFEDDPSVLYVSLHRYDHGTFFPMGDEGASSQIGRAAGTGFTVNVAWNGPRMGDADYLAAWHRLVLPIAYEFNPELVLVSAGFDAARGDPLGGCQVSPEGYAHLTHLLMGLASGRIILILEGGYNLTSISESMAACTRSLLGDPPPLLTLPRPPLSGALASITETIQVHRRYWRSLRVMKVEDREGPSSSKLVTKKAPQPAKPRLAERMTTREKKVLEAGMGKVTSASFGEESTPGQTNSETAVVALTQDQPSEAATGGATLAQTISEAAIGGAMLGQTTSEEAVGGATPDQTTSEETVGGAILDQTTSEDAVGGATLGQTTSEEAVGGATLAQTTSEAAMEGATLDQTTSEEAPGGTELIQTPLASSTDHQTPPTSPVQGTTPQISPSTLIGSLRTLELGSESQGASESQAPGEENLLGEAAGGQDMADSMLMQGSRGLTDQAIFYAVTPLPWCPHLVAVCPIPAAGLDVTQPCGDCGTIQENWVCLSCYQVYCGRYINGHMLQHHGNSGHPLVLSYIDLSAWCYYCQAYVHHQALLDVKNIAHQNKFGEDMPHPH
Procedure, shortened: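 Luminescence read-out: 20 min after adding HDAC-Glo substrate-developer at room temperature. Before that, compound and Sf-9-expressed, GST-purified full-length HDAC1 or HDAC6 sat together 60 min in pH 7.5 Tris buffer. Inhibition is relative to no-enzyme wells taken as 100%.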

Structure (SMILES)	inhibition at 1 µM [1] [%]	inhibition at 1 µM [2] [%]	HDAC1 inhibitory rate (%) (1 μM) [1]	HDAC6 inhibitory rate (%) (1 μM) ([2]; 1 µM)
O=C(NCC1COCCN1C(=O)C12CC3CC(CC(C3)C1)C2)c1ccc(-c2noc(C(F)(F)F)n2)cc1 (stereo in doubt) [Example 97, N-(((3S)-4-(adamantan-1-ylcarbonyl)morpholin-3-yl)methyl)-4-(5-(trifluoromethyl)-1,2,4-oxadiazol-3-yl)benzamide]	16	96	–	–
O=C(NCC1COCCN1C(=O)N1CCCC1)c1ccc(-c2noc(C(F)(F)F)n2)cc1 (stereo in doubt) [Example 100, N-(((3S)-4-(pyrrolidin-1-ylcarbonyl)morpholin-3-yl)methyl)-4-(5-(trifluoromethyl)-1,2,4-oxadiazol-3-yl)benzamide]	6	97	–	–
CC(C)(C(=O)N1CCOCC1CNC(=O)c1ccc(-c2noc(C(F)(F)F)n2)cc1)n1cccn1 (stereo in doubt) [Example 101, N-(((3S)-4-(2-methyl-2-(1H-pyrazol-1-yl)propanoyl)morpholin-3-yl)methyl)-4-(5-(trifluoromethyl)-1,2,4-oxadiazol-3-yl)benzamide]	17	99	–	–
O=C(NCC1COCCN1C(=O)C1CCNC1=O)c1ccc(-c2noc(C(F)(F)F)n2)cc1 (stereo in doubt) [Example 104, N-(((3S)-4-((2-oxopyrrolidin-3-yl)carbonyl)morpholin-3-yl)methyl)-4-(5-(trifluoromethyl)-1,2,4-oxadiazol-3-yl)benzamide]	9	57	–	–
O=C(NCC1COCCN1C(=O)C1CCNC1=O)c1ccc(-c2noc(C(F)(F)F)n2)cc1 (stereo in doubt) [Example 105, N-(((3S)-4-((2-oxopyrrolidin-3-yl)carbonyl)morpholin-3-yl)methyl)-4-(5-(trifluoromethyl)-1,2,4-oxadiazol-3-yl)benzamide]	–	–	8	76
O=C(NCC1COCCN1C(=O)c1ccccc1)c1ccc(-c2noc(C(F)(F)F)n2)cc1 (stereo in doubt) [Example 111, N-(((3R)-4-benzoylmorpholin-3-yl)methyl)-4-(5-(trifluoromethyl)-1,2,4-oxadiazol-3-yl)benzamide]	21	101	–	–
O=C(NCC1COCCN1C(=O)c1cc(Cl)cc(Cl)c1)c1ccc(-c2noc(C(F)(F)F)n2)cc1 (stereo in doubt) [Example 112, N-(((3R)-4-(3,5-dichlorobenzoyl)morpholin-3-yl)methyl)-4-(5-(trifluoromethyl)-1,2,4-oxadiazol-3-yl)benzamide]	16	97	–	–
O=C(NCC1COCCN1C(=O)c1ccccc1N1CCOCC1)c1ccc(-c2noc(C(F)(F)F)n2)cc1 (stereo in doubt) [Example 118, N-(((3R)-4-(2-(morpholin-4-yl)benzoyl)morpholin-3-yl)methyl)-4-(5-(trifluoromethyl)-1,2,4-oxadiazol-3-yl)benzamide]	17	97	–	–
O=C(NCC1COCCN1C(=O)c1cc(F)c(F)c(F)c1)c1ccc(-c2noc(C(F)(F)F)n2)cc1 (stereo in doubt) [Example 119, N-(((3R)-4-(3,4,5-trifluorobenzoyl)morpholin-3-yl)methyl)-4-(5-(trifluoromethyl)-1,2,4-oxadiazol-3-yl)benzamide]	11	97	–	–
O=C(NCC1COCCN1C(=O)c1ccccc1)c1ccc(-c2noc(C(F)(F)F)n2)cc1 (stereo not shown) [Example 1, N-((4-benzoylmorpholin-3-yl)methyl)-4-(5-(trifluoromethyl)-1,2,4-oxadiazol-3-yl)benzamide]	22	98	–	–
O=C(NCC1COCCN1C(=O)c1ccccc1Cl)c1ccc(-c2noc(C(F)(F)F)n2)cc1 (stereo not shown) [Example 6, N-((4-(2-chlorobenzoyl)morpholin-3-yl)methyl)-4-(5-(trifluoromethyl)-1,2,4-oxadiazol-3-yl)benzamide]	22	111	–	–

Further lines, results first:

inhibition at 1 µM [1] [%]	inhibition at 1 µM [2] [%]	HDAC1 inhibitory rate (%) (1 μM) [1]	HDAC6 inhibitory rate (%) (1 μM) ([2]; 1 µM)	Structure (SMILES)
15	98	–	–	CN(C(=O)N1CCOCC1CNC(=O)c1ccc(-c2noc(C(F)(F)F)n2)cc1)c1ccccc1 (stereo in doubt) [Example 98, (3S)-N-methyl-N-phenyl-3-(((4-(5-(trifluoromethyl)-1,2,4-oxadiazol-3-yl)benzoyl)amino)methyl)morpholine-4-carboxamide]
9	99	–	–	O=C(NCC1COCCN1C(=O)N1CCOCC1)c1ccc(-c2noc(C(F)(F)F)n2)cc1 (stereo in doubt) [Example 99, N-(((3S)-4-(morpholin-4-ylcarbonyl)morpholin-3-yl)methyl)-4-(5-(trifluoromethyl)-1,2,4-oxadiazol-3-yl)benzamide]
50	99	–	–	CCc1noc(C)c1C(=O)N1CCOCC1CNC(=O)c1ccc(-c2noc(C(F)(F)F)n2)cc1 (stereo in doubt) [Example 102, N-(((3S)-4-((3-ethyl-5-methyl-1,2-oxazol-4-yl)carbonyl)morpholin-3-yl)methyl)-4-(5-(trifluoromethyl)-1,2,4-oxadiazol-3-yl)benzamide]
35	98	–	–	O=C(NCC1COCCN1C(=O)C1(c2ccccc2)COC1)c1ccc(-c2noc(C(F)(F)F)n2)cc1 (stereo in doubt) [Example 103, N-(((3S)-4-((3-phenyloxetan-3-yl)carbonyl)morpholin-3-yl)methyl)-4-(5-(trifluoromethyl)-1,2,4-oxadiazol-3-yl)benzamide]
51	98	–	–	CCn1nccc1C(=O)N1CCOCC1CNC(=O)c1ccc(-c2noc(C(F)(F)F)n2)cc1 (stereo in doubt) [Example 106, N-(((3S)-4-((1-ethyl-1H-pyrazol-5-yl)carbonyl)morpholin-3-yl)methyl)-4-(5-(trifluoromethyl)-1,2,4-oxadiazol-3-yl)benzamide]
–	97	17	–	O=C(NCC1COCCN1C(=O)c1cccc(F)c1)c1ccc(-c2noc(C(F)(F)F)n2)cc1 (stereo in doubt) [Example 113, N-(((3R)-4-(3-fluorobenzoyl)morpholin-3-yl)methyl)-4-(5-(trifluoromethyl)-1,2,4-oxadiazol-3-yl)benzamide]
19	99	–	–	O=C(NCC1COCCN1C(=O)c1ccccc1F)c1ccc(-c2noc(C(F)(F)F)n2)cc1 (stereo not shown) [Example 3]
18	100	–	–	O=C(NCC1COCCN1C(=O)c1cccc(F)c1)c1ccc(-c2noc(C(F)(F)F)n2)cc1 (stereo not shown) [Example 4, N-((4-(3-fluorobenzoyl)morpholin-3-yl)methyl)-4-(5-(trifluoromethyl)-1,2,4-oxadiazol-3-yl)benzamide]
21	99	–	–	O=C(NCC1COCCN1C(=O)c1ccc(F)cc1)c1ccc(-c2noc(C(F)(F)F)n2)cc1 (stereo not shown) [Example 5, N-((4-(4-fluorobenzoyl)morpholin-3-yl)methyl)-4-(5-(trifluoromethyl)-1,2,4-oxadiazol-3-yl)benzamide]
